Measurements: US11504382B2, “Tricyclic inhibitors of Hepatitis B virus” (Antios Therapeutics, Inc., priority 2018, dated 2022)

test system: HBV; test: HBV inhibition assay in HepAD38 cells (extracellular HBV DNA by direct qPCR); assay type: cell-based, Hepatitis B virus; conditions: 0.1 μM, 96 hours, relative to non-treated reference

**Q.** How did the “Anti HBV Activity (conc μM)” value turn out when “Ethyl 8-((3-chloro-4-fluorophenyl)carbamoyl)-7-methyl-3a,4,10,10a-tetrahydro-1H,7H-dipyrrolo[3,4-b:3′,4′-f][1,4,5]oxathiazocine-2(3H)-carboxylate 5,5-dioxide (3aS,10aS) [Example E42]” was run?
**A.** B (0.1) (HBV inhibition less than 50% at the concentration indicated in the table)

same assay, conditions: 96 hours, 8-point dose-response curve, read-out: HBV inh EC50

**Q.** How did the EC50 turn out when `CCOC(=O)N1CC2NS(=O)(=O)c3cn(C)c(C(=O)Nc4ccc(F)c(C)c4)c3OCC2(C)C1` (single isomer, unassigned) [Example E93, Ethyl 8-((4-fluoro-3-methylphenyl)carbamoyl)-7,10a-dimethyl-3a,4,10,10a-tetrahydro-1H,7H-dipyrrolo[3,4-b:3′,4′-f][1,4,5]oxathiazocine-2(3H)-carboxylate 5,5-dioxide (Chiral 3aS,10aS or 3aR,10aR - Stereochemistry unknown)] was run?
**A.** < 1000 nM

**Q.** For `Cc1cc(NC(=O)c2c3c(cn2C)S(=O)(=O)NC2CCN(C(=O)C45CC(CO4)C5)CC2CO3)ccc1F` (racemic) [Example E133, Trans-8-(2-oxabicyclo[2.1.1]hexane-1-carbonyl)-N-(4-fluoro-3-methylphenyl)-2-methyl-5,5a,6,7,8,9,9a,10-octahydro-2H-pyrido[4,3-f]pyrrolo[3,4-b][1,4,5]oxathiazocine-1-carboxamide 4,4-dioxide], which EC50 is on record?
**A.** < 1000 nM

same assay, conditions: Hepatitis B virus, 0.05 μM, 96 hours, relative to non-treated reference, read-out: Anti HBV Activity (conc μM)

**Q.** For `Cc1cc(C(=O)N2CC3COc4c(cn(C)c4C(=O)Nc4ccc(F)c(C)c4)S(=O)(=O)NC3C2)no1` (stereo not drawn) [Example E52, cis-N-(4-fluoro-3-methylphenyl)-7-methyl-2-(5-methylisoxazole-3-carbonyl)-2,3,3a,4,10,10a-hexahydro-1H,7H-dipyrrolo[3,4-b:3′,4′-f][1,4,5]oxathiazocine-8-carboxamide 5,5-dioxide], which inhibition at 0.05 µM is on record?
**A.** > 50%

same assay, conditions: Hepatitis B virus, 0.1 μM, 96 hours, relative to non-treated reference, read-out: Anti HBV Activity (conc μM)

**Q.** With `Cn1cc2c(c1C(=O)Nc1cc(F)c(F)c(F)c1)OCC1CN(C(=O)OC3CO[C@H]4OCC[C@@H]34)CC1NS2(=O)=O` (mixture of isomers) [Example E22, cis-(3R,3aS,6aR)-hexahydrofuro[2,3-b]furan-3-yl 7-methyl-8-((3,4,5-trifluorophenyl)carbamoyl)-3a,4,10,10a-tetrahydro-1H,7H-dipyrrolo[3,4-b:3′,4′-f][1,4,5]oxathiazocine-2(3H)-carboxylate 5,5-dioxide] as the compound, how does the inhibition at 0.1 µM read?
**A.** > 50%

same assay, conditions: Hepatitis B virus, 96 hours, 8-point dose-response curve, read-out: HBV inh EC50

**Q.** `Cc1cc(NC(=O)c2c3c(cn2C)S(=O)(=O)NC2CCN(C(=O)c4ncoc4C)CC2CO3)ccc1F` (racemic) [Example E134, Trans-N-(4-fluoro-3-methylphenyl)-2-methyl-8-(5-methyloxazole-4-carbonyl)-5,5a,6,7,8,9,9a,10-octahydro-2H-pyrido[4,3-f]pyrrolo[3,4-b][1,4,5]oxathiazocine-1-carboxamide 4,4-dioxide] was tested. Which EC50 did it give?
**A.** < 1000 nM

**Q.** Which EC50 does the source give for `Cc1cc(NC(=O)c2c3c(cn2C)S(=O)(=O)NC2CN(C(=O)C45CC(CO4)C5)CC2(C)CO3)ccc1F` (stereo not drawn) [Example E90, cis-2-(2-oxabicyclo[2.1.1]hexane-1-carbonyl)-N-(4-fluoro-3-methylphenyl)-7,10a-dimethyl-2,3,3a,4,10,10a-hexahydro-1H,7H-dipyrrolo[3,4-b:3′,4′-f][1,4,5]oxathiazocine-8-carboxamide 5,5-dioxide] here?
**A.** < 1000 nM

**Q.** For `CCOC(=O)N1C[C@H]2C[S+]([O-])c3c(cn(C)c3C(=O)Nc3ccc(F)c(C)c3)S(=O)(=O)N[C@H]2C1` (stereo partly drawn) [Example E122, Ethyl (3aR,10aR)-8-((4-fluoro-3-methylphenyl)carbamoyl)-7-methyl-3a,4,10,10a-tetrahydro-1H,7H-dipyrrolo[3,4-c:3′,4′-g][1,6,2]dithiazocine-2(3H)-carboxylate 5,5,9-trioxide], which EC50 is on record?
**A.** < 1000 nM

**Q.** With `Cc1nnc(C(=O)N2CC[C@H]3COc4c(cn(C)c4C(=O)Nc4ccc(F)c(C)c4)S(=O)(=O)N[C@@H]3C2)o1` (relative stereo) [Example E140, Trans-N-(4-fluoro-3-methylphenyl)-2-methyl-7-(5-methyl-1,3,4-oxadiazole-2-carbonyl)-5,5a,6,7,8,9,9a,10-octahydro-2H-pyrido[3,4-f]pyrrolo[3,4-b][1,4,5]oxathiazocine-1-carboxamide 4,4-dioxide] as the compound, how does the EC50 read?
**A.** < 1000 nM

**Q.** `Cc1nnc(C(=O)N2C[C@H]3COc4c(cn(C)c4C(=O)Nc4ccc(F)c(C)c4)S(=O)(=O)N[C@H]3C2)o1` [Example E98, (3aR,10aR)—N-(4-fluoro-3-methylphenyl)-7-methyl-2-(5-methyl-1,3,4-oxadiazole-2-carbonyl)-2,3,3a,4,10,10a-hexahydro-1H,7H-dipyrrolo[3,4-b:3′,4′-f][1,4,5]oxathiazocine-8-carboxamide 5,5-dioxide] was tested. Which EC50 did it give?
**A.** < 1000 nM

**Q.** For `Cc1cc(NC(=O)c2c3c(cn2C)S(=O)(=O)NC2CN(C(=O)C4(C)CCCO4)CC2(C)CO3)ccc1F` (stereo not drawn) [Example E88, cis-N-(4-fluoro-3-methylphenyl)-7,10a-dimethyl-2-(2-methyltetrahydrofuran-2-carbonyl)-2,3,3a,4,10,10a-hexahydro-1H,7H-dipyrrolo[3,4-b:3′,4′-f][1,4,5]oxathiazocine-8-carboxamide 5,5-dioxide], which EC50 is on record?
**A.** < 1000 nM

**Q.** How did the EC50 turn out when `Cc1nnc(C(=O)N2CCC3COc4c(cn(C)c4C(=O)Nc4ccc(F)c(C)c4)S(=O)(=O)NC3C2)o1` (racemic) [Example E135, Cis-N-(4-fluoro-3-methylphenyl)-2-methyl-7-(5-methyl-1,3,4-oxadiazole-2-carbonyl)-5,5a,6,7,8,9,9a,10-octahydro-2H-pyrido[3,4-f]pyrrolo[3,4-b][1,4,5]oxathiazocine-1-carboxamide 4,4-dioxide] was run?
**A.** < 1000 nM

**Q.** With `Cc1cc(NC(=O)c2c3c(cn2C)S(=O)(=O)NC2CN(C(=O)c4ncoc4C)CCC2CO3)ccc1F` (racemic) [Example E139, Cis-N-(4-fluoro-3-methylphenyl)-2-methyl-7-(5-methyloxazole-4-carbonyl)-5,5a,6,7,8,9,9a,10-octahydro-2H-pyrido[3,4-f]pyrrolo[3,4-b][1,4,5]oxathiazocine-1-carboxamide 4,4-dioxide] as the compound, how does the EC50 read?
**A.** < 1000 nM

**Q.** `Cc1nnc(N2C[C@H]3COc4c(cn(C)c4C(=O)Nc4cc(F)c(F)c(F)c4)S(=O)(=O)N[C@H]3C2)o1` [Example E120, (3aR,10aR)-7-methyl-2-(5-methyl-1,3,4-oxadiazol-2-yl)-N-(3,4,5-trifluorophenyl)-2,3,3a,4,10,10a-hexahydro-1H,7H-dipyrrolo[3,4-b:3′,4′-f][1,4,5]oxathiazocine-8-carboxamide 5,5-dioxide] was tested. Which EC50 did it give?
**A.** < 1000 nM

**Q.** For `Cc1cc(C(=O)N2CC3COc4c(cn(C)c4C(=O)Nc4ccc(F)c(C)c4)S(=O)(=O)NC3C2)no1` (stereo not drawn) [Example E52, cis-N-(4-fluoro-3-methylphenyl)-7-methyl-2-(5-methylisoxazole-3-carbonyl)-2,3,3a,4,10,10a-hexahydro-1H,7H-dipyrrolo[3,4-b:3′,4′-f][1,4,5]oxathiazocine-8-carboxamide 5,5-dioxide], which EC50 is on record?
**A.** < 1000 nM

**Q.** With `Cc1cc(NC(=O)c2c3c(cn2C)S(=O)(=O)N[C@H]2CN(C(=O)c4cnon4)C[C@H]2CO3)ccc1F` [Example E105, (3aR,10aR)—N-(4-fluoro-3-methylphenyl)-7-methyl-2-(1,2,5-oxadiazole-3-carbonyl)-2,3,3a,4,10,10a-hexahydro-1H,7H-dipyrrolo[3,4-b:3′,4′-f][1,4,5]oxathiazocine-8-carboxamide 5,5-dioxide] as the compound, how does the EC50 read?
**A.** < 1000 nM

**Q.** For `CCOC(=O)N1CC2CNc3c(cn(C)c3C(=O)Nc3ccc(F)c(C)c3)S(=O)(=O)NC2C1` (stereo not drawn) [Example E157, Cis Ethyl 8-((4-fluoro-3-methylphenyl)carbamoyl)-7-methyl-3a,4,7,9,10,10a-hexahydro-1H-dipyrrolo[3,4-c:3′,4′-g][1,2,6]thiadiazocine-2(3H)-carboxylate 5,5-dioxide], which EC50 is on record?
**A.** > 1000 nM

**Q.** `Cc1cc(NC(=O)c2c3c(cn2C)S(=O)(=O)NC2CN(c4nnco4)CC2CO3)ccc1F` (stereo not drawn) [Example E49, cis-N-(4-fluoro-3-methylphenyl)-7-methyl-2-(1,3,4-oxadiazol-2-yl)-2,3,3a,4,10,10a-hexahydro-1H,7H-dipyrrolo[3,4-b:3′,4′-f][1,4,5]oxathiazocine-8-carboxamide 5,5-dioxide] was tested. Which EC50 did it give?
**A.** < 1000 nM

**Q.** How did the EC50 turn out when `Cc1noc(N2C[C@H]3COc4c(cn(C)c4C(=O)Nc4cc(F)c(F)c(F)c4)S(=O)(=O)N[C@H]3C2)n1` [Example E117, (3aR,10aR)-7-methyl-2-(3-methyl-1,2,4-oxadiazol-5-yl)-N-(3,4,5-trifluorophenyl)-2,3,3a,4,10,10a-hexahydro-1H,7H-dipyrrolo[3,4-b:3′,4′-f][1,4,5]oxathiazocine-8-carboxamide 5,5-dioxide] was run?
**A.** < 1000 nM

**Q.** Which EC50 does the source give for `Cn1cc2c(c1C(=O)Nc1cc(F)c(F)c(F)c1)OCC1CN(C(=O)OC3CO[C@H]4OCC[C@@H]34)CC1NS2(=O)=O` (mixture of isomers) [Example E22, cis-(3R,3aS,6aR)-hexahydrofuro[2,3-b]furan-3-yl 7-methyl-8-((3,4,5-trifluorophenyl)carbamoyl)-3a,4,10,10a-tetrahydro-1H,7H-dipyrrolo[3,4-b:3′,4′-f][1,4,5]oxathiazocine-2(3H)-carboxylate 5,5-dioxide] here?
**A.** < 1000 nM

**Q.** Which EC50 does the source give for `Cc1nc(C(=O)N2C[C@H]3COc4c(cn(C)c4C(=O)Nc4ccc(F)c(C)c4)S(=O)(=O)N[C@H]3C2)c(C)o1` [Example E114, (3aR,10aR)-2-(2,5-dimethyloxazole-4-carbonyl)-N-(4-fluoro-3-methylphenyl)-7-methyl-2,3,3a,4,10,10a-hexahydro-1H,7H-dipyrrolo[3,4-b:3′,4′-f][1,4,5]oxathiazocine-8-carboxamide 5,5-dioxide] here?
**A.** < 1000 nM

**Q.** With `Cn1cc2c(c1C(=O)Nc1cc(F)c(F)c(F)c1)OCC1CN(c3nccc(=O)[nH]3)CC1NS2(=O)=O` (stereo not drawn) [Example E59, cis-7-methyl-2-(6-oxo-1,6-dihydropyrimidin-2-yl)-N-(3,4,5-trifluorophenyl)-2,3,3a,4,10,10a-hexahydro-1H,7H-dipyrrolo[3,4-b:3′,4′-f][1,4,5]oxathiazocine-8-carboxamide 5,5-dioxide] as the compound, how does the EC50 read?
**A.** > 1000 nM

**Q.** With `Cc1nnc(C(=O)N2CCC3NS(=O)(=O)c4cn(C)c(C(=O)Nc5ccc(F)c(C)c5)c4OCC3C2)o1` (racemic) [Example E125, Cis-N-(4-fluoro-3-methylphenyl)-2-methyl-8-(5-methyl-1,3,4-oxadiazole-2-carbonyl)-5,5a,6,7,8,9,9a,10-octahydro-2H-pyrido[4,3-f]pyrrolo[3,4-b][1,4,5]oxathiazocine-1-carboxamide 4,4-dioxide] as the compound, how does the EC50 read?
**A.** < 1000 nM

**Q.** Which EC50 does the source give for `Cc1cc(NC(=O)c2c3c(cn2C)S(=O)(=O)NC2CN(C(=O)c4ncoc4C)CC2(C)CO3)ccc1F` (stereo not drawn) [Example E87, cis-N-(4-fluoro-3-methylphenyl)-7,10a-dimethyl-2-(5-methyloxazole-4-carbonyl)-2,3,3a,4,10,10a-hexahydro-1H,7H-dipyrrolo[3,4-b:3′,4′-f][1,4,5]oxathiazocine-8-carboxamide 5,5-dioxide] here?
**A.** < 1000 nM
